Assays:
[1] = biological target: T1, recombinant human KDM5B (Homo sapiens, UniProt Q9UGL1); test: 14CO2 capture enzymatic assay (decarboxylation of [1-14C] αKG), KDM5B; format: biochemical; details: 10 μM [1-14C] αKG, 90 μM non-labeled αKG, 50 μM peptide substrate, 37° C., 1 hour, final 1% DMSO
T1 sequence (Q9UGL1 374-755 limits assumed): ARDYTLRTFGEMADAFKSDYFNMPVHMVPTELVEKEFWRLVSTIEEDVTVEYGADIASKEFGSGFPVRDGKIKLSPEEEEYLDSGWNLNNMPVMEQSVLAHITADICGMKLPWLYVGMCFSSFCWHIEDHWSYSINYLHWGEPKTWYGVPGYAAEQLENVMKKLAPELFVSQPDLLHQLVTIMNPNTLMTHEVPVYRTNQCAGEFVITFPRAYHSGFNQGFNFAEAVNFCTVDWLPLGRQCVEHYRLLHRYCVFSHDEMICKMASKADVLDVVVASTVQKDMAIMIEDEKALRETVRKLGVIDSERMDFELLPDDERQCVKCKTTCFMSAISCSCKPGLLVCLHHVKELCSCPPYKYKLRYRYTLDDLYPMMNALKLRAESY
Procedure, shortened: (§1)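 Truncated recombinant human KDM5B (H3K4me3 peptide) or KDM4A (H3K9me3 peptide), 50 μM peptide, with 10 μM [1-14C]αKG plus 90 μM unlabeled αKG, 10 μM Fe(SO4), 2 mM ascorbate in pH 7.4 HEPES, 1 h at 37 °C, 1% DMSO. Released 14CO2 trapped on Ba(OH)2 filter; IC50 by non-linear fit.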

[2] = biological target: T2, recombinant human KDM4A (Homo sapiens, UniProt O75164); test: 14CO2 capture enzymatic assay (decarboxylation of [1-14C] αKG), KDM4A; format: biochemical; details: 10 μM [1-14C] αKG, 90 μM non-labeled αKG, 50 μM peptide substrate, 37° C., 1 hour, final 1% DMSO
T2 construct: made in house
T2 sequence (O75164 1-359 limits assumed): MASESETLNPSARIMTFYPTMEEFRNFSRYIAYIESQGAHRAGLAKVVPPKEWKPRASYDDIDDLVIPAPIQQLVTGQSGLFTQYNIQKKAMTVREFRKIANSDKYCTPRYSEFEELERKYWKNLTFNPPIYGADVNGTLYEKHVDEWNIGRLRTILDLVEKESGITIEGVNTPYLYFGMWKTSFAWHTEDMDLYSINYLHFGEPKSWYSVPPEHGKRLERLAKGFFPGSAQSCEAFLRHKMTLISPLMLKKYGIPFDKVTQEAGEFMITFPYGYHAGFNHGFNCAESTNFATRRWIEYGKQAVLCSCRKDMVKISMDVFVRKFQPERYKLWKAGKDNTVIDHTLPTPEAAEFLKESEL
Procedure, shortened: as §1

Row | Structure (SMILES) | IC50 [1] | IC50 [2]
1 | Cc1noc(C)c1Cc1cc(C#N)c(O)c(C(=O)CCC(=O)O)n1 [Example 154, 4-[4-Cyano-6-(3,5-dimethyl-isoxazol-4-ylmethyl)-3-hydroxy-pyridin-2-yl]-4-oxo-butyric acid] | 0.26 µM | 1.4 µM
2 | Cc1ccc(Cl)c(Cc2cc(C#N)c(O)c(C(=O)CCC(=O)O)n2)c1Cl [Example 155, 4-[4-Cyano-6-(2,6-dichloro-3-methyl-benzyl)-3-hydroxy-pyridin-2-yl]-4-oxo-butyric acid] | 0.18 µM | 34 µM
3 | N#Cc1cc(Cc2c(Cl)ccc(Cl)c2Cl)nc(C(=O)CCC(=O)O)c1O [Example 156, 4-[4-Cyano-3-hydroxy-6-(2,3,6-trichloro-benzyl)-pyridin-2-yl]-4-oxo-butyric acid] | 0.07 µM | 11 µM
4 | CN(C(=O)c1ccccc1)c1cc(C#N)c(O)c(C(=O)CCC(=O)O)n1 [Example 159, 4-[6-(Benzoyl-N-methyl-amino)-4-cyano-3-hydroxy-pyridin-2-yl]-4-oxo-butyric acid] | 0.99 µM | > 40 µM

Second part, the compound after the results:

Row | IC50 [1] | IC50 [2] | Structure (SMILES)
5 | 1.4 µM | > 40 µM | N#Cc1nc(-c2ccccc2)cc(C(=O)CCC(=O)O)c1O [Example 157, 4-(2-Cyano-3-hydroxy-6-phenyl-pyridin-4-yl)-4-oxo-butyric acid]
6 | 0.08 µM | > 40 µM | N#Cc1cc(NC(=O)c2ccccc2)nc(C(=O)CCC(=O)O)c1O [Example 158, 4-(6-Benzoylamino-4-cyano-3-hydroxy-pyridin-2-yl)-4-oxo-butyric acid]
7 | 2 µM | > 40 µM | N#Cc1nc(Cc2ccccc2)cc(C(=O)CCC(=O)O)c1O [Example 160, 4-(6-Benzyl-2-cyano-3-hydroxy-pyridin-4-yl)-4-oxo-butyric acid]

Source: patent US20240002344A1, “COMPOUNDS, COMPOSITIONS AND METHODS FOR HISTONE LYSINE DEMETHYLASE INHIBITION” (FibroGen, Inc., priority 2020, published 2024)
